The values that follow come from patent publication US20180179210A1, “Inhibitors of the TEC Kinase Enzyme Family” (Pharmascience Inc., priority 2015, published 2018).

The test system of assay [1] is TMD-8 human activated B cell diffuse large B cell lymphoma cells. The experiment in a line: TMD-8 survival assay. It counts as cell-based. The conditions noted are these: TMD8, TMD-8 cells, 72 h treatment, Cell Titer-Glo. On the procedure:
BTK inhibitors affect the survival of B-cell lymphomas. TMD-8 human activated B cell diffuse large B cell lymphoma cells were seeded in 96-well plates at a density of 20,000 cells/well in HyClone RPMI supplemented with 10% FBS (Fisher)/1% Penicillin/Streptomycin (HyClone) and incubated at 37° C., 5% CO2. Cells were treated in triplicate with 1,000 nM or 100 nM curves of compounds for 72 h. Cell survival was measured by Cell Titer-Glo Luminescent Assay (Promega). EC50 values (50% proliferation in the presence of compound as compared to vehicle treated controls) were calculated from dose response compound curves using GraphPad Prism Software.
(Cellular ATP, detected with luciferase, serves as a proxy for viable cell number.)

For the next assay, the system named is Splenocytes. Kind of assay: Splenic cell proliferation assay (anti-IgM stimulated). Format: cell-based. The following applies: Splenocyte; CD1 mouse splenocytes, 1 h pre-treatment, 2.5 ug/ml anti-IgM F(ab')2 for 72 h, Cell Titer-Glo; read-out: EC50 (inhibition of splenic cell proliferation). On the procedure: Proliferation of splenocytes in response to anti-IgM can be blocked by inhibition of Btk.
Splenocytes were obtained from 6 week old male CD1 mice (Charles River Laboratories Inc.). Mouse spleens were manually disrupted in PBS and filtered using a 70 um cell strainer followed by ammonium chloride red blood cell lysis. Cells were washed, resuspended in Splenocyte Medium (HyClone RPMI supplemented with 10% heat-inactivated FBS, 0.5× non-essential amino acids, 10 mM HEPES, 50 uM beta mercaptoethanol) and incubated at 37° C., 5% CO2 for 2 h to remove adherent cells. Suspension cells were seeded in 96 well plates at 50,000 cells per well and incubated at 37° C., 5% CO2 for 1 h. Splenocytes were pre-treated in triplicate with 10,000 nM curves of Formula 1 compounds for 1 h, followed by stimulation of cell proliferation with 2.5 ug/ml anti-IgM F(ab′)2 (Jackson ImmunoResearch) for 72 h. Cell proliferation was measured by Cell Titer-Glo Luminescent Assay (Promega). EC50 values (50% proliferation in the presence of compound as compared to vehicle treated controls) were calculated from dose response compound curves using GraphPad Prism Software EC50 values are reported in Table 3: […]

In the next assay the target is T1, human BTK kinase (hBTK) (Homo sapiens, UniProt Q06187).
T1 construct: purchased Eurofins Pharma Discovery Services UK Limited (contract assay, Kinase Profiler)
T1 sequence (Q06187 whole entry): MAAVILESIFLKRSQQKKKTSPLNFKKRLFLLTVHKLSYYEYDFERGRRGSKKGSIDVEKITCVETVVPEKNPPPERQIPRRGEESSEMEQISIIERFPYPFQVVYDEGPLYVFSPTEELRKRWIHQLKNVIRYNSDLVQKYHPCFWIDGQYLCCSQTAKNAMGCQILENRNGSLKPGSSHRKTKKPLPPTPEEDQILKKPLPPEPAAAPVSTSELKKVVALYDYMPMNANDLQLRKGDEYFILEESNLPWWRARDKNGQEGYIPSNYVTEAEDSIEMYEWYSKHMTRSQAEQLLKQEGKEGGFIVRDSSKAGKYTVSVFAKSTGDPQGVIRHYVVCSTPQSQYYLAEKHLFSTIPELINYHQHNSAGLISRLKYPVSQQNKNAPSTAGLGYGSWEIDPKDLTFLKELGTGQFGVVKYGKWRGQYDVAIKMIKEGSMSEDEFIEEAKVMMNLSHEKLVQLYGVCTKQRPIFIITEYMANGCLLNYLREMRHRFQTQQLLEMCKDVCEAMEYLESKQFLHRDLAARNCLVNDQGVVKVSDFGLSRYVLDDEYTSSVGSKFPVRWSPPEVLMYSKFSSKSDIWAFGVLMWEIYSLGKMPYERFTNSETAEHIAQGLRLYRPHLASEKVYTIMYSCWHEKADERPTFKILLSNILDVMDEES
The experiment in a line: BTK kinase inhibition assay (Kinase Profiler radiometric protein kinase assay, Eurofins). It counts as biochemical. The conditions noted are these: radiometric [γ-33P-ATP] assay, 40 minutes at room temperature, 250 μM substrate. The method, then:
In vitro potency of selected compound was defined against human BTK kinase (hBTK) using Kinase Profiler radiometric protein kinase assays performed at Eurofins Pharma Discovery Services UK Limited.
hBTK kinase is diluted in buffer and all compounds were prepared to 50× final assay concentration in 100% DMSO. This working stock of the compound was added to the assay well as the first component in the reaction, followed by the remaining components as detailed in the assay protocol listed above. The reaction was initiated by the addition of the MgATP mix. The kinase reaction was performed at room temperature for 40 minutes in presence of 250 μM substrate, 10 mM MgAcetate, [γ-33P-ATP] (specific activity approx. 500 cpm/pmol, concentration as required) and variable test article concentrations. The ATP concentrations in the assays were with 15 μM of the apparent. The reaction was stopped by the addition of 3% phosphoric acid solution. 10 μL of the reaction is then spotted onto a P30 filtermat and washed three times for 5 minutes in 75 mM phosphoric acid and once in methanol prior to drying and scintillation counting. In addition positive control wells contain all components of the reaction, except the compound of interest; however, DMSO (at a final concentration of 2%) were included in these wells to control for solvent effects as well as blank wells contain all components of the reaction, with a reference inhibitor replacing the compound of interest. This abolishes kinase activity and establishes the base-line (0% kinase activity remaining).

Another assay addresses BTK (Homo sapiens, UniProt Q06187). Kind of assay: BTK enzyme off-rate determination (dilution kinetic experiments). Format: biochemical. The following applies: 10-30 nM compound pre-incubated with 7 nM enzyme, 1000 uM ATP, 1 h, diluted 250×, monitored 8 h. The method, then: 10-30 nM compound was pre-incubated with 7 nM enzyme in the presence of 1000 uM ATP for 1 h. The [I]-[E] complex was diluted 250× into an assay buffer with 1000 uM ATP and 2uM substrate peptide. Enzyme activity in the diluted samples was monitored in real time assay over period of 8 h. The progress curves were fit with time dependent equation to determine apparent Kobs and residence time of the compound. […] Consistent with covalent inhibition of BTK.

Molecules are shown by their SMILES.

Chain of BTK (Q06187 whole entry): as above

By IC50 is commonly meant the concentration that inhibits the measured activity by half. Higher therefore signals lower potency. With `C#CC(=O)N1CCC[C@@H](n2nc(-c3ccc(Oc4cc(F)cc(OCc5cnc(C)nc5)c4)cc3)c3c(N)ncnc32)C1` [Compound 10], the EC50 was found to be 75.5 nM in assay [1] and 9.8 nM in the assay with Splenocytes. At human BTK kinase (hBTK), 8 nM corresponded to half-maximal inhibition (IC50).

For the molecule `Cc1ncc(COc2cc(F)cc(Oc3ccc(-c4nn(C[C@H]5CCCN5C(=O)/C=C/CN(C)C)c5ncnc(N)c45)cc3)c2)cn1` [Compound 9], the figures for the EC50 (in assay [1]; in the assay with Splenocytes) were 18.7 nM and 6.4 nM, respectively. At human BTK kinase (hBTK), this molecule gave an IC50 of 40 nM.

Consider `Cc1ncc(COc2cc(F)cc(Oc3ccc(-c4nn(C[C@H]5CCCN5C(=O)C5=CCC5)c5ncnc(N)c45)cc3)c2)cn1` [Compound 15], for which the figures for the EC50 (in assay [1]; with Splenocytes) were 56.1 nM and 8.7 nM, respectively. In addition, the concentration for half-maximal inhibition (IC50) against human BTK kinase (hBTK) was 53 nM.

As for `C=CC(=O)N[C@H]1C[C@@H](n2nc(-c3ccc(Oc4cc(F)cc(OCc5cnc(C)nc5)c4)cc3)c3c(N)ncnc32)C1` [Compound 27], the EC50 in assay [1] was 4.7 nM; in the assay on Splenocytes, 0.8 nM. Also, the “Residence time half life (1/Kobs)” value at BTK was greater than 10 h. Also, the residence time at BTK (read-out: Residence time half life (1/Kobs)) is greater than 600 min. For the same molecule, half-maximal inhibition on human BTK kinase (hBTK) (IC50) was put at 8 nM.
